Counter-ions that a name gives are not always drawn.
Tests used:
Format in all cases: cell-based
[1] = target: T1, human serotonin transporter (Homo sapiens, UniProt P31645); assay: Inhibitory action on human serotonin transporter ([3H]-5-hydroxytryptamine uptake in CHO cells); settings: CHO, compound 1 μM; relative to inhibitory activity of 10 μM Paroxetine as 100%; read-out: inhibitory rate (%)
T1 construct: expressed in transfected cells
Outline: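 CHO-K1 cells stably expressing human SERT, plated overnight, took up [3H]-5-HT (diluted to 200 nM before a 1:10 addition) for 20 min in HEPES-buffered saline with glucose and 0.5% BSA; radioactivity counted by scintillation. Compounds at 10 μM or 1 μM, activity expressed relative to 10 μM paroxetine set as 100%.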

[2] = target: T2, human norepinephrine transporter (Homo sapiens, UniProt P23975); assay: Inhibitory action on human norepinephrine transporter ([3H]-norepinephrine uptake in CHO cells); settings: CHO, compound 1 μM; relative to inhibitory activity of 10 μM DMI as 100%; read-out: inhibitory rate (%)
T2 construct: expressed in transfected cells
Outline: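 Stably transfected CHO-K1 cells plated overnight, then given test compound and [3H]-norepinephrine (20 nM final, from 200 nM) in HEPES-buffered saline with 0.5% BSA for 45 min. After PBS washes, retained radioactivity counted by scintillation. Inhibition at 10 μM or 1 μM compound expressed relative to 10 μM DMI as 100%.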

[3] = target: T3, human dopamine transporter (Homo sapiens, UniProt Q01959); assay: Inhibitory action on human dopamine transporter ([3H]-dopamine uptake in CHO cells); settings: CHO, compound 1 μM; relative to inhibitory activity of 100 μM Nomifensine as 100%; read-out: inhibitory rate (%)
T3 construct: expressed in transfected cells
Outline: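 CHO-K1 cells stably expressing human dopamine transporter, exposed to compound at 10 μM or 1 μM in HEPES-buffered saline with 0.5% BSA. [3H]-dopamine uptake measured over 60 min by scintillation counting. Activity expressed relative to 100 μM nomifensine as 100%.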

T3 sequence (Q01959 whole entry): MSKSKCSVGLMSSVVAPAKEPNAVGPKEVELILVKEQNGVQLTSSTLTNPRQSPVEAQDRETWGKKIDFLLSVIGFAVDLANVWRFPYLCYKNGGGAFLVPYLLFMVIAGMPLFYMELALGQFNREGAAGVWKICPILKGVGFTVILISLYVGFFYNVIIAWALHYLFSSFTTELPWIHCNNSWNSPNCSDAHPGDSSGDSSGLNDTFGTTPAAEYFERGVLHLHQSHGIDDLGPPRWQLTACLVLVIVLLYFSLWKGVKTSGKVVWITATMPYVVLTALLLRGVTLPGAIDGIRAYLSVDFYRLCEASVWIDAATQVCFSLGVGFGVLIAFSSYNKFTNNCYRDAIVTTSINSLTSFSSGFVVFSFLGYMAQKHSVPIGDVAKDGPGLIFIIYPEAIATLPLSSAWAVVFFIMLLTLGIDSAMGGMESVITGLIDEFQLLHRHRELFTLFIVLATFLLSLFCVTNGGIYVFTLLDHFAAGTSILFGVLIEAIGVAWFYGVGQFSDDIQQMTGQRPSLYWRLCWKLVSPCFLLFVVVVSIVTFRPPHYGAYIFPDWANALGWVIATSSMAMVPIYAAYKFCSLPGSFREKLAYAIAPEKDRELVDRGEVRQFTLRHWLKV
T2 sequence (P23975 whole entry): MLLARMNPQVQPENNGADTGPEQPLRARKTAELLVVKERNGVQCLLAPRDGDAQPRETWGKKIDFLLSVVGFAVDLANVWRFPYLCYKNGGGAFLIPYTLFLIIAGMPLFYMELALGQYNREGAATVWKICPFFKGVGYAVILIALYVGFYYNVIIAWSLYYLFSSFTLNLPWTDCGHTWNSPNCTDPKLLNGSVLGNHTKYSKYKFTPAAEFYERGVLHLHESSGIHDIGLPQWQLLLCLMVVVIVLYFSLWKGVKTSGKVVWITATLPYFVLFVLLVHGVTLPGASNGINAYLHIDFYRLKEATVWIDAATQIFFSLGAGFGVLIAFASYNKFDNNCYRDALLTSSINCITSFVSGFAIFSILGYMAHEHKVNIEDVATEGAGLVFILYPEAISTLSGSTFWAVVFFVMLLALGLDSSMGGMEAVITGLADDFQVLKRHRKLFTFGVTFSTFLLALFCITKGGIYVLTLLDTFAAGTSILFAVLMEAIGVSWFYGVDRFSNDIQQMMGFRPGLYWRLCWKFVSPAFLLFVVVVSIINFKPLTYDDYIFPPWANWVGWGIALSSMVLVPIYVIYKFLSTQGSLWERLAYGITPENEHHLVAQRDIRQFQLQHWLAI
T1 sequence (P31645 whole entry): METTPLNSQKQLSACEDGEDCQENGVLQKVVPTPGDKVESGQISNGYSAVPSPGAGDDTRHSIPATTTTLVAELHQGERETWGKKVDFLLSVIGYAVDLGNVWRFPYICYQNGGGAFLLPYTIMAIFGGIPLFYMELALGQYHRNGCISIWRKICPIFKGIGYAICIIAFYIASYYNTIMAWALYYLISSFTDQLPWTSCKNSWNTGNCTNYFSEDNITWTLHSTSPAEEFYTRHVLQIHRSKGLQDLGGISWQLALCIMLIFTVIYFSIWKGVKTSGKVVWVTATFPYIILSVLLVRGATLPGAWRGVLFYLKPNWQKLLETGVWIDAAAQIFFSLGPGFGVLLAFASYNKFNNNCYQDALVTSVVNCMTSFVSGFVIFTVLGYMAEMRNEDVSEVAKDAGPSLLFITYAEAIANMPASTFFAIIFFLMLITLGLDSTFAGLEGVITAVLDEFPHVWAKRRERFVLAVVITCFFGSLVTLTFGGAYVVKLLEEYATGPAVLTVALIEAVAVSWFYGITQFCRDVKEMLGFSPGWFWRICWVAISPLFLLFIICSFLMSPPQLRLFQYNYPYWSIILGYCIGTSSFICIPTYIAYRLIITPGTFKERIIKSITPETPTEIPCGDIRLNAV

| SMILES | inhibition at 1 µM [1] [%] | inhibition at 1 µM [2] [%] | inhibition at 1 µM [3] [%] |
| --- | --- | --- | --- |
| CS(=O)(=O)NC[C@H]1OCCNC[C@H]1c1ccc(Cl)c(Cl)c1 [Example 467, N-{[(6R,7S)-6-(3,4-dichlorophenyl)-1,4-oxazepan-7-yl]methyl}methanesulfonamide monohydrochloride] | 38 | 102 | 60 |
| O=S(=O)(NC[C@H]1OCCNC[C@H]1c1ccc(Cl)c(Cl)c1)C(F)F [Example 470, N-{[(6R,7S)-6-(3,4-dichloropheny))-1,4-oxazepan-7-yl]methyl}-1,1-difluoromethanesulfonamide monohydrochloride] | 66 | 103 | 91 |
| O=c1cccnn1C[C@H]1OCCNC[C@H]1c1ccc(Cl)c(Cl)c1 [Example 481, 2-{[(6R,7S)-6-(3,4-dichlorophenyl)-1,4-oxazepan-7-yl]methyl}pyridazin-3(2H)-one monohydrochloride] | 76 | 100 | 61 |
| OC[C@H]1OCCNC[C@@H]1c1ccc(Cl)c(Cl)c1 [Example 487, [(6S,7S)-6-(3,4-dichlorophenyl)-1,4-oxazepan-7-yl]methanol monohydrochloride] | 15 | 70 | 14 |
| OC[C@@H]1OCCNC[C@H]1c1ccc(Cl)c(Cl)c1 [Example 488, [(6R,7R)-6-(3,4-dichlorophenyl)-1,4-oxazepan-7-yl]methanol monohydrochloride] | 61 | 102 | 37 |
| OCC(O)(CO)[C@@H]1OCCNC[C@H]1c1ccc(Cl)c(Cl)c1 [Example 491, 2-[(6R,7R)-6-(3,4-dichlorophenyl)-1,4-oxazepan-7-yl]propane-1,2,3-triol monohydrochloride] | 77 | 100 | 77 |
| OCCOC[C@@H]1OCCNC[C@H]1c1ccc(Cl)c(Cl)c1 [Example 496, 2-{[(6R,7R)-6-(3,4-dichlorophenyl)-1,4-oxazepan-7-yl]methoxy}ethanol monohydrochloride] | 62 | 105 | 57 |
| O=C(CO)NC[C@@H]1OCCNC[C@H]1c1ccc(Cl)c(Cl)c1 [Example 507, N-{[(6R,7R)-6-(3,4-dichlorophenyl)-1,4-oxazepan-7-yl]methyl}-2-hydroxyacetamide monohydrochloride] | 46 | 104 | 25 |
| O=c1cccnn1C[C@@H]1OCCNC[C@H]1c1ccc(Cl)c(Cl)c1 [Example 515, 2-{[(6R,7R)-6-(3,4-dichlorophenyl)-1,4-oxazepan-7-yl]methyl}pyridazin-3(2H)-one monohydrochloride] | 82 | 104 | 53 |
| O=c1[nH]c(-c2cccnc2OC2CNCCOC2c2ccc(Cl)c(Cl)c2)no1 (stereo not drawn) [Example 525, 3-(2-{[(6R*,7S*)-7-(3,4-dichlorophenyl)-1,4-oxazepan-yl]oxy}pyridin-3-yl)-1,2,4-oxadiazol-5(4H)-one monohydrochloride (retention time long)] | 97 | 104 | 98 |
| O=C1NCCCN1C[C@H]1OCCNC[C@H]1c1ccc(Cl)c(Cl)c1 [Example 545, 1-{[(6R,7S)-6-(3,4-dichlorophenyl)-1,4-oxazepan-7-yl]methyl}tetrahydropyrimidin-2(1H)-one monohydrochloride] | 94 | 108 | 81 |
| O=c1[nH]nc(-c2cccn(C[C@@H]3CNCCO[C@H]3c3ccc(Cl)c(F)c3)c2=O)o1 [Example 550, 1-{[(6S,7R)-7-(4-chloro-3-fluorophenyl)-1,4-oxazepan-6-yl]methyl}-3-(5-oxo-4,5-dihydro-1,3,4-oxadiazol-2-yl)pyridin-2(1H)-one monohydrochloride] | 97 | 109 | 46 |
| O[C@@H]1CNCCO[C@H]1c1ccc(Cl)c(F)c1 [Example 552, (6R,7S)-7-(4-chloro-3-fluorophenyl)-1,4-oxazepan-6-ol monohydrochloride] | 14 | 107 | 1 |
| O=c1[nH]nc(-c2cccnc2O[C@@H]2CNCCO[C@H]2c2ccc(Cl)c(F)c2)[nH]1 [Example 558, 5-(2-{[(6R,7S)-7-(4-chloro-3-fluorophenyl)-1,4-oxazepan-6-yl]oxy}pyridin-3-yl)-2,4-dihydro-3H-1,2,4-triazol-3-one monohydrochloride] | 81 | 106 | 100 |
| Cc1nnc(-c2cccnc2O[C@@H]2CNCCO[C@H]2c2ccc(Cl)c(F)c2)[nH]1 [Example 568, (6R,7S)-7-(4-chloro-3-fluorophenyl)-6-{[3-(5-methyl-4H-1,2,4-triazol-3-yl)pyridin-2-yl]oxy}-1,4-oxazepane monohydrochloride] | 94 | 103 | 100 |
| CS(=O)(=O)CC1(O)CNCCOC1c1ccc(Cl)c(F)c1 (stereo not drawn) [Example 572, 7-(4-chloro-3-fluoro-phenyl)-6-[(methyl-sulfonyl)-methyl]-1,4-oxazepan-ol] | 95 | 103 | 62 |
| OC[C@H](O)[C@H]1OCCNC[C@H]1c1ccc(Cl)c(Cl)c1 [Example 578, (1S)-1-[(6R, 7S)-6-(3,4-dichloro-phenyl)-1,4-oxazepan-7-yl]ethane-1,2-diol] | 28 | 99 | 68 |
| OC[C@@H](O)[C@H]1OCCNC[C@H]1c1ccc(Cl)c(Cl)c1 [Example 579, (1R)-1-[(6R, 7S)-6-(3,4-dichloro-phenyl)-1,4-oxazepan-7-yl]ethane-1,2-diol] | 61 | 96 | 49 |
| O=C(O)c1ccnn(C[C@@H]2CNCCO[C@H]2c2ccc(Cl)c(F)c2)c1=O [Example 597, 2-{[(6S, 7R)-7-(4-chloro-3-fluoro-phenyl)-1,4-oxazepan-6-yl]methyl}-3-oxo-2,3-dihydro-pyridazine-4-carboxylic acid] | 78 | 104 | 38 |

Source: patent publication US20130267494A1, “1,4-OXAZEPANE DERIVATIVES” (priority 2010, published 2013)
